In general, GI50 refers to the concentration that inhibits growth by half. Read a high GI50 as lower sensitivity of the cells.

In brackets after ≈: the same amount, converted by molar mass. Several values for one entry are separate records, joined by “and”; a condition that tells them apart may be missing. Identical values can stand only once. Like-named read-outs stand apart in the source and are kept apart here.

Data set [1] concerns HeLa (cervical carcinoma) cell line. The experiment in a line: Sulforhodamine B growth inhibition assay, HeLa. Type of data set: cell-based, human. As for the experimental part:
(§1) J. regia leaf extracts (30 mg/mL) and solvents were studied regarding their inhibitory growth activity of the HeLa (cervical carcinoma) cell line and the non-tumor PLP2 cells (porcine liver primary cells) by using a sulforhodamine B assay. The extracts were diluted to obtain a stock solution of 10 mg/mL, and the concentration of the working solutions ranged from 500 to 7.8 µg/mL, while the concentration of the solvents ranged from 4% to 0.0156%. Ellipticine was used as positive control. The experimental protocol related to the cell cultures was previously described by Barros et al. and Abreu et al..

Data set [2] deals with non-tumor PLP2 cells (porcine liver primary cells). As to the kind of experiment: Sulforhodamine B growth inhibition assay, PLP2 (hepatotoxicity). As for the experimental part: as §1
Test in data set [3]: as above
The note with it: pig, PLP2 cells (porcine liver primary cells, non-tumor). As for the experimental part: as §1

[4] abbreviates: solvent without extract, range 4% to 0.0156%, mean ± SD.

On to `OCCCCCO` [1,5-pentanediol], for which the “GI50 HeLa, Solvent” value in data set [1] (setting [4]) was 0.49 ± 0.02b %, v/v. In data set [2] (pig), the “GI50 PLP2, Solvent” value is on record as 0.59 ± 0.02b %, v/v.
In the case of `CCO` [Ethanol, ethanol], the “GI50 HeLa, Solvent” value in data set [1] (setting [4]) is >4 %, v/v. Also, in data set [2], the “GI50 PLP2, Solvent” value is recorded as >4 %, v/v.
Take `CCCC(O)CO` (stereo not shown) [1,2-pentanediol]: the “GI50 HeLa, Solvent” value in data set [1] (setting [4]) was 0.63 ± 0.04a %, v/v. The “GI50 PLP2, Solvent” value in data set [2] (setting [4]) is 0.89 ± 0.04a %, v/v.
In the case of `CC(O)CO` (stereo not shown) [1,2-propanediol], the “GI50 HeLa, Solvent” value in data set [1] (setting [4]) is >4 %, v/v. In addition, the “GI50 PLP2, Solvent” value in data set [2] (setting [4]) is >4 %, v/v.
With `OCC(O)CO` [Glycerol, glycerol], the “GI50 HeLa, Solvent” value in data set [1] (setting [4]) was >4 %, v/v. Moreover, the “GI50 PLP2, Solvent” value in data set [2] (pig) is recorded as >4 %, v/v.
Consider `O` [Water, water], for which the “GI50 HeLa, Solvent” value in data set [1] (setting [4]) is recorded as >4 %, v/v. In data set [2], the “GI50 PLP2, Solvent” value is recorded as >4 %, v/v.
As for `CCCCC(O)CO` (stereo not shown) [1,2-hexanediol], the “GI50 HeLa, Solvent” value in data set [1] (setting [4]) was 0.36 ± 0.02 %, v/v and 0.36 ± 0.02c %, v/v. Further, the “GI50 PLP2, Solvent” value in data set [2] (setting [4]) was 0.285 ± 0.005 %, v/v and 0.285 ± 0.005c %, v/v.
In the case of `CC(O)CCO` (stereo not shown) [1,3-butanediol], in data set [1] (setting [4]), the “GI50 HeLa, Solvent” value is recorded as >4 %, v/v. Moreover, the “GI50 PLP2, Solvent” value in data set [2] (setting [4]) is on record as >4 %, v/v.
Regarding `OCCO` [1,2-ethanediol], the “GI50 HeLa, Solvent” value in data set [1] is on record as >4 %, v/v. In addition, the “GI50 PLP2, Solvent” value in data set [2] is >4 %, v/v.
As to `Cc1c2ccncc2c(C)c2c1[nH]c1ccccc12` [Ellipticine, reference compound], the GI50 in data set [1] (Homo sapiens, HeLa, positive control, mean ± SD) turned out to be 1 ± 0.1 µg/mL (≈ 4.06 µM); in data set [3], 2.3 µg/mL (≈ 9.34 µM).
With `OCCCO` [1,3-propanediol], in data set [1] (setting [4]), the “GI50 HeLa, Solvent” value is >4 %, v/v. In data set [2] (setting [4]), the “GI50 PLP2, Solvent” value is recorded as >4 %, v/v.
